This passage reports Km and growth results from patent publication US10717964B2, “Synthetic methylotrophy to liquid fuels and chemicals” (University of Delaware, priority 2014, dated 2020).

The test system of data set [1] is formate dehydrogenase (FDH, fdh) from Clostridium carboxidivorans P7T. The settings on record: read-out: Km (for NADH); cited from earlier work.
The subject of the next data set is E. coli pACM4_pFRM_GFP. The data set is classed as cell-based. The settings on record: 500 and 1000 μM HCHO, MOPS+0.1% glucose. An excerpt:
(§1) GFP expression correlated with HCHO concentration over time. Overnight LB cultures were transferred to MOPS+0.1% glucose for the experiment.

The next data set deals with E. coli pETM6_Pfrm_GFP. In kind it is cell-based. The settings on record: 2 and 4 mM HCHO, MOPS+0.1% glucose.
Text: as §1

The subject of data set [2] is E. coli Rosetta empty vector control (pET21_Empty). The data set is described as follows: Growth of empty vector control E. coli in media spiked with formaldehyde. In kind it is cell-based. The following applies: LB plus formaldehyde (2 mM) or mixture of M9 and LB plus formaldehyde (1.5 mM). The protocol:
FIGS. 42A-B show growth of E. coli expressing HPS and PHI genes from M. gastri. The ability of E. coli to grow in A) LB or B) mixed M9:LB (3:1) spiked with formaldehyde was assessed. Log phase cultures of E. coli harboring pET_M.g.PHI_HPS (circles) or pET21_Empty (squares) were induced with 0.5 mM IPTG for 3 h before being diluted into test media containing 2 mM formaldehyde (LB) or 1.5 mM formaldehyde (M9:LB). Aliquots were taken from the cultures at the indicated time points to determine the optical density (OD600). Arrows indicate times in which the cultures were spiked with (A) 2 mM or (B) 1.5 mM formaldehyde.
Primers were designed to amplify the Mycobacterium gastri phi-hps operon, which encodes the genes necessary to fix formaldehyde to ribulose-5-phosphate yielding hexulose-6-phosphate, and then convert […] to fructose-6-phosphate. Genes were amplified and initially cloned into the expression vector pET21a (Novagen). This vector utilizes the T7 promoter, and was transformed into the Rosetta strain of E. coli. E. coli Rosetta expressing the M. gastri PHI-HPS operon was compared with an empty vector control for growth in LB with 2 mM formaldehyde (FIG. 42A-B). […] When the same strains were tested in M9 minimal media containing only formaldehyde (0.25 mM) as the sole carbon source, no increase in OD600 was observed (FIG. 43).

Data set [3] has as its system E. coli pACM4_pFRM_GFP+pETM6-BstMDH. The data set is classed as cell-based. The settings on record: 2000 and 4000 mM methanol, MOPS+0.1% glucose. An excerpt:
Overnight LB cultures were transferred to MOPS+0.1% glucose for the experiment.

Substrate in data set [4]: CO
The data set is described as follows: cells, lysate or membranes named. The settings on record: other: crude cell extracts of E. coli, in vitro.

On to `NC(=O)C1=CN([C@@H]2O[C@H](COP(=O)(O)OP(=O)(O)OC[C@H]3O[C@@H](n4cnc5c(N)ncnc54)[C@H](O)[C@@H]3O)[C@@H](O)[C@H]2O)C=CC1` [NADH], for which the Km in data set [1] is 50 µM.

Consider `C=O` [formaldehyde], for which the growth result in the data set with E. coli pACM4_pFRM_GFP was “Retarded growth”; in the data set on E. coli pETM6_Pfrm_GFP, “No growth was observed”; in data set [2] it was “unable to grow”.

For `CO` [methanol], in data set [3], the growth result is given as “Retarded growth”.

B1: methanol dehydrogenase MDH1 (MDH) from Bacillus stearothermophilus (Geobacillus stearothermophilus) (protein)
chain: MKAAVVNEFKKALEIKEVERPKLEEGEVLVKIEACGVCHTDLHAAHGDWPIKPKLPLIPGHEGVGIVVEVAKGVKSIKVGDRVGIPWLYSACGECEYCLTGQETLCPHQLNGGYSVDGGYAEYCKAPADYVAKIPDNLDPVEVAPILCAGVTTYKALKVSGARPGEWVAIYGIGGLGHIALQYAKAMGLNVVAVDISDEKSKLAKDLGADIAINGLKEDPVKAIHDQVGGVHAAISVAVNKKAFEQAYQSVKRGGTLVVVGLPNADLPIPIFDTVLNGVSVKGSIVGTRKDMQEALDFAARGKVRPIVETAELEEINEVFERMEKGKINGRIVLKLKED
On to B1, for which the Km in data set [4] was found to be 27000 µM.

The Km is the concentration of substrate that gives half-maximal velocity.
